Experimental data reported in ChEMBL document CHEMBL4706632, “Development of Potential Antitumor Agents from the Scaffolds of Plant-Derived Terpenoid Lactones” (J Med Chem, 2020).

Tests used:
Format in all cases: functional, cell-based
HCT-15 [1] = experiment: Cytotoxicity against human HCT-15 cells incubated for 48 hrs by MTT assay; settings: HCT-15, 48 h
LNCaP C4-2B = experiment: Cytotoxicity against human LNCaP C4-2B cells incubated for 48 hrs by MTT assay
MDA-MB-231 [2] = experiment: Cytotoxicity against human MDA-MB-231 cells incubated for 48 hrs by MTT assay; settings: MDA-MB-231, 48 h
LNCaP = experiment: Cytotoxicity against human LNCAP cells incubated for 48 hrs clonogenic survival assay; settings: 48 h
IMR-32 = experiment: Cytotoxicity against human IMR-32 cells incubated for 48 hrs by SRB assay; settings: IMR-32, 48 h
HeLa = experiment: Cytotoxicity against human HeLa cells incubated for 48 hrs by SRB assay
HepG2 [3] = experiment: Cytotoxicity against human HepG2 cells incubated for 48 hrs by SRB assay; settings: HepG2, 48 h
HepG2 [4] = experiment: Cytotoxicity against human HepG2 cells by MTT assay
HCT-116 [5] = experiment: Cytotoxicity against human HCT-116 cells by MTT assay
BGC-823 = experiment: Cytotoxicity against human BGC-823 cells by MTT assay
P388 [6] = experiment: Cytotoxicity against mouse P388 cells incubated for 48 hrs by MTT assay; settings: P388, 48 h
MCF7 [7] = experiment: Cytotoxicity against human MCF7 cells incubated for 48 hrs by alamarblue reagent based assay; settings: MCF7, 48 h
HepG2 [8] = experiment: Cytotoxicity against human HepG2 cells incubated for 48 hrs by alamarblue reagent based assay; settings: HepG2, 48 h
PANC-1 = experiment: Cytotoxicity against human Panc-1 cells incubated for 72 hrs by sulphorhodamine B assay; settings: PANC-1, 72 h
MDA-MB-231 [9] = experiment: Cytotoxicity against human MDA-MB-231 cells incubated for 72 hrs by MTT assay; settings: MDA-MB-231, 72 h
MCF7 [10] = experiment: Cytotoxicity against human MCF-7 cells incubated for 72 hrs by MTT assay; settings: MCF7, 72 h
SW1990 = experiment: Antiproliferative activity against human SW1990 incubated for 72 hrs by sulphorhodamine B assay; settings: SW1990, 72 h
HCT-116 [11] = experiment: Antiproliferative activity against human HCT-116 cells incubated for 72 hrs by WST-1 assay; settings: HCT-116, 72 h
L1210 = experiment: Cytotoxicity against mouse L1210 cells
SK-OV-3 = experiment: Cytotoxicity against human SK-OV-3 cells by SRB staining assay
SK-MEL-2 = experiment: Cytotoxicity against human SK-MEL-2 cells by SRB staining assay
A549 = experiment: Cytotoxicity against human A549 cells by SRB staining assay
XF498 = experiment: Cytotoxicity against human XF498 cells by SRB staining assay
HCT-15 [12] = experiment: Cytotoxicity against human HCT-15 cells by SRB staining assay
P388 [13] = experiment: Antiproliferative activity against mouse P388 cells

## CC1=C2C(=C[C@H]3[C@]4(C)CCCC(C)(C)[C@H]4CC[C@]34O[C@H]24)OC1=O
HCT-15 [1]
  IC50: > 50000 nM
LNCaP C4-2B
  IC50: 10000 nM
MDA-MB-231 [2]
  IC50: > 50000 nM

## CC1(C)CCC[C@]2(C)[C@@H]1CC[C@@]13O[C@@H]1C1=C(CO)C(=O)OC1=C[C@@H]23
HCT-15 [1]
  IC50: 13000 nM
LNCaP C4-2B
  IC50: 2200 nM
MDA-MB-231 [2]
  IC50: 8800 nM

## CC1(C)CCC[C@]2(C)[C@@H]1CC[C@@]13O[C@@H]1C1=C(CO)C(=O)O[C@]14O[C@@H]4[C@@H]23
HCT-15 [1]
  IC50: > 50000 nM
LNCaP C4-2B
  IC50: 12000 nM
MDA-MB-231 [2]
  IC50: > 50000 nM

## C/C=C(/C)C(=O)O[C@H]1C(C)=C2[C@H]([C@@H]1OC(=O)CCCCCCC)[C@@](C)(OC(C)=O)C[C@H](OC(=O)CCCCCCCCCCCNC(=O)[C@@H](N)CC(C)C)[C@@]1(O)[C@H]2OC(=O)[C@@]1(C)O
LNCaP
  IC50: 14 nM

## C=C1[C@@H]2CC[C@@]3(C)[C@H](c4ccoc4)OC(=O)C[C@]13O[C@H]1C[C@H](OC(C)=O)C(C)(C)[C@H](CC(=O)OC)[C@]12C
IMR-32
  IC50: 22 nM
HeLa
  IC50: 61000 nM
HepG2 [3]
  IC50: > 100000 nM

## CC(C)[C@]1(O)[C@H](O)[C@@H]2O[C@]23[C@]2(O[C@H]2C[C@H]2C4=C(CC[C@@]23C)C(=O)OC4)[C@@H]1O
HepG2 [4]
  IC50: > 10000 nM
HCT-116 [5]
  IC50: > 10000 nM
BGC-823
  IC50: > 10000 nM

## CC(C)[C@H]1OC(=O)C=C2[C@@]13O[C@@H]3[C@H]1OC(=O)[C@@]3(C)CCC[C@@]2(C)[C@@H]13
P388 [6]
  IC50: 240 nM

## C=C1C(=O)O[C@@H]2C3O[C@]3(C)CC/C=C(\C)CC[C@@H]12 (stereo partly specified)
MCF7 [7]
  IC50: 11000 nM
HepG2 [8]
  IC50: 17000 nM

## COC(=O)[C@@]12OC[C@]34[C@H]([C@@H](O)[C@@H]1O)[C@@]1(C)CC(=O)C(O)=C(C)[C@@H]1C[C@H]3OC(=O)[C@H](OC(=O)C=C(C)C)[C@@H]24
PANC-1
  IC50: 360 nM
MDA-MB-231 [9]
  IC50: 81 nM
MCF7 [10]
  IC50: 83 nM
SW1990
  IC50: 100 nM
HCT-116 [11]
  IC50: 67 nM

## C=C1[C@@H](O)[C@@]2(O)OC[C@@]34[C@H]1[C@@H](OC(=O)/C=C(\C)CCCCC)C(=O)O[C@@H]3C[C@H]1C(C)=CC(=O)[C@@H](O)[C@]1(C)[C@@H]24
L1210
  IC50: 90 nM

## CC(=O)O[C@@H]1C[C@H](O)[C@@]23COC(O)[C@]1(C)[C@@H]2C[C@@H](O)[C@@]1(C)[C@@H]2C(=O)C[C@@H](c4ccoc4)[C@]2(C)[C@@H](O)C(=O)[C@@H]13 (stereo partly specified)
SK-OV-3
  IC50: 26000 nM
SK-MEL-2
  IC50: 710 nM
A549
  IC50: 1700 nM
XF498
  IC50: 3800 nM
HCT-15 [12]
  IC50: 3000 nM

## C/C1=C\CC[C@@]2(C)O[C@H]2[C@H]2OC(=O)C(CNc3ccn(C4OC(CO)[C@H](O)[C@@H]4O)c(=O)n3)[C@@H]2CC1 (stereo partly specified)
MCF7 [7]
  IC50: 5200 nM
HepG2 [8]
  IC50: 240 nM

## C=C1[C@@H](O)[C@@]2(O)OC[C@@]34[C@H]1[C@@H](OC(=O)/C=C/CCCCCCCC)C(=O)O[C@@H]3C[C@H]1C(C)=CC(=O)[C@@H](O)[C@]1(C)[C@@H]24
L1210
  IC50: 90 nM

## CC1=CC(=O)[C@@H](O)[C@]2(C)[C@H]3[C@@H](O)[C@H](O)[C@@]4(C)OC[C@@]35[C@@H](C[C@@H]12)OC(=O)[C@H](O)[C@]54O
PANC-1
  IC50: 1300 nM
MDA-MB-231 [9]
  IC50: 24000 nM
MCF7 [10]
  IC50: 19000 nM
SW1990
  IC50: 2100 nM

## C=C1[C@@H]2CC[C@@]3(C)[C@H](c4ccoc4)OC(=O)C[C@]13O[C@H]1C[C@H](OC(=O)CN3CCN(C(=O)c4ccccc4)CC3)C(C)(C)[C@H](CC(=O)OC)[C@]12C
IMR-32
  IC50: > 100000 nM
HeLa
  IC50: 14000 nM
HepG2 [3]
  IC50: 10 nM

## CC(=O)O[C@@H]1C[C@H](O)[C@@]23COC(O)[C@]1(C)[C@@H]2C[C@@H](O)[C@]1(C)[C@@H]3C(=O)C(O)[C@@]2(C)[C@H](c3ccoc3)C[C@H]3O[C@@]312 (stereo partly specified)
SK-OV-3
  IC50: 470 nM
SK-MEL-2
  IC50: 19 nM
P388 [13]
  IC50: 3.8 nM
A549
  IC50: 75 nM
XF498
  IC50: 38 nM
HCT-15 [12]
  IC50: 150 nM
